Data on 25 compounds can be found in ChEMBL document CHEMBL4651402, “Screening of ~5500 FDA-approved drugs and clinical candidates for anti-SARS-CoV-2 activity” (2021).

In the assay the test system is SARS-CoV-2. As to the kind of experiment: microbe, parasite or virus in culture. Conditions: Severe acute respiratory syndrome coronavirus 2, Vero C1008, 48 h.

`C[C@]12CC[C@H]3[C@@H](CCC4=CC(=O)CC[C@@]43C)[C@@H]1CC[C@@H]2C(=O)CO` [DESOXYCORTICOSTERONE]: the IC50 is over 20 µM. Besides, the IC50 (read-out: pIC50 (converted)) is over 20 µM.

Compound `CCC(=O)C(c1ccccc1)(c1ccccc1)C(C)CN(C)C` (stereo not given) [ISOMETHADONE] gave an IC50 of over 20 µM. Besides, the IC50 (read-out: pIC50 (converted)) is over 20 µM.

For the compound `C=C(C)Cn1c(N)cc(=O)n(C)c1=O` [AMISOMETRADINE], the IC50 is over 20 µM. Further, the IC50 (read-out: pIC50 (converted)) is over 20 µM.

The compound `CNC(=N)NC(=O)Nc1c(C)cccc1C` [LIDAMIDINE] yielded an IC50 of over 20 µM. Where the note is “read-out: pIC50 (converted)”, the IC50 is over 20 µM.

`CCCC(C)C1(CC)C(=O)NC(=O)NC1=O` (stereo not given) [PENTOBARBITAL]: the IC50 was over 20 µM. Also, where the note is “read-out: pIC50 (converted)”, the IC50 is over 20 µM.

`CCNC1C2CCC(C2)C1c1ccccc1` (stereo not given) [FENCAMFAMIN] yielded an IC50 of over 20 µM. Moreover, the IC50 (read-out: pIC50 (converted)) is over 20 µM.

Compound `C=C1/C(=C\C=C2/CCC[C@]3(C)[C@@H]([C@H](C)/C=C/[C@@H](O)C4CC4)CC[C@@H]23)C[C@@H](O)C[C@@H]1O` [CALCIPOTRIENE] had an IC50 of over 20 µM. Further, the IC50 (read-out: pIC50 (converted)) was over 20 µM.

In the case of `C[C@@H]1CCC[C@H](C)N1`, the IC50 was over 20 µM. Further, the IC50 (read-out: pIC50 (converted)) is over 20 µM.

In turn, `COc1ccc2c3c1OC1C(O)C=CC4C(C2)[N+](C)(C)CCC341` (stereo not given) came in with an IC50 of over 20 µM. Moreover, the IC50 (read-out: pIC50 (converted)) was over 20 µM.

Compound `Nc1[nH]cnc2ncnc1-2` [ADENINE] came in with an IC50 of over 20 µM. For the same compound, the IC50 (read-out: pIC50 (converted)) was over 20 µM.

For the compound `CCN1CCCC1CNC(=O)c1cc(S(=O)(=O)CC)c(N)cc1OC` (stereo not given) [AMISULPRIDE], the IC50 was over 20 µM. In addition, where the note is “read-out: pIC50 (converted)”, the IC50 was over 20 µM.

Compound `NC(=O)c1ccn2c1CS[C@@H]2c1cccnc1` [DACOPAFANT] displayed an IC50 of over 20 µM. The IC50 (read-out: pIC50 (converted)) was over 20 µM.

In the case of `CO[C@@]1(NC(=O)Cc2cccs2)C(=O)N2C(C(=O)O)=C(COC(N)=O)CS[C@@H]21` [CEFOXITIN], the IC50 was over 20 µM. Also, the IC50 (read-out: pIC50 (converted)) is over 20 µM.

`C[C@]12CCC(=O)C[C@@H]1CC[C@@H]1[C@@H]2CC[C@]2(C)[C@@H](O)CC[C@@H]12` [STANOLONE]: the IC50 was over 20 µM. The IC50 (read-out: pIC50 (converted)) was over 20 µM.

`C=C1[C@@H]2CC[C@H]3[C@]4(C)C[C@H](O[C@H]5O[C@H](CO)[C@@H](OS(=O)(=O)O)[C@H](OS(=O)(=O)O)[C@H]5OC(=O)CC(C)C)C[C@@H](C(=O)O)[C@H]4CC[C@]3(C2)[C@H]1O`: the IC50 was over 20 µM. The IC50 (read-out: pIC50 (converted)) is over 20 µM.

For the compound `CC12CCC(=O)C[C@@H]1CCC1C2CCC2(C)C1CCC2(C)O` (stereo not given in full), the IC50 is over 20 µM. Besides, under “read-out: pIC50 (converted)”, the IC50 is over 20 µM.

The compound `NC(=O)c1nc(F)cnc1O` had an IC50 of over 50.1 µM. In addition, under “read-out: pIC50 (converted)”, the IC50 was over 50.1 µM.

The compound `Cn1nnc2c(C(N)=O)ncn2c1=O` [TEMOZOLOMIDE] came in with an IC50 of over 20 µM. For the same compound, under “read-out: pIC50 (converted)”, the IC50 is over 20 µM.

`C=CCC(N)Cc1ccccc1` (stereo not given) [ALETAMINE] showed an IC50 of over 20 µM. The IC50 (read-out: pIC50 (converted)) was over 20 µM.

Compound `C[C@@]1(c2nc3cccc(C(N)=O)c3[nH]2)CCCN1` yielded an IC50 of over 20 µM. Also, the IC50 (read-out: pIC50 (converted)) is over 20 µM.

For `Cc1c2c(cn1C)NC(=O)CN=C2c1ccccc1` [PREMAZEPAM], the IC50 is over 20 µM. Further, the IC50 (read-out: pIC50 (converted)) is over 20 µM.

As to `C[C@H](CCC(=O)O)[C@H]1CC[C@H]2[C@@H]3[C@H](O)CC4C[C@H](O)CC[C@]4(C)[C@H]3CC[C@]12C` (stereo not given in full), the IC50 is over 20 µM. Also, under “read-out: pIC50 (converted)”, the IC50 was over 20 µM.

With `C[C@]12CCCN1CC1=NNC(=O)c3cc(F)cc4[nH]c2c1c34` [PAMIPARIB], the IC50 was over 20 µM. For the same compound, the IC50 (read-out: pIC50 (converted)) was over 20 µM.

As for `COc1cc(CCc2cc(NC(=O)c3ccc(N4C[C@@H](C)N[C@@H](C)C4)cc3)n[nH]2)cc(OC)c1` [FEXAGRATINIB], the IC50 is over 20 µM. For the setting “read-out: pIC50 (converted)”, the IC50 is over 20 µM.

`CC(=O)OC1CCC2C3CCc4cc(O)ccc4C3CCC12C` (stereo not given) showed an IC50 of over 20 µM. For the same compound, the IC50 (read-out: pIC50 (converted)) is over 20 µM.
